# Results taken from patent publication US20050260730A1, “CDK2/cyclin A crystals and uses thereof” (priority 2003, published 2005).
# Read-outs that look alike come from different tables or passages of the source. Non-standard residues stand in square brackets, D forms with d. Residues, ends and D or L forms follow the SMILES beside them. Phe(4-F) = N[C@@H](Cc1ccc(F)cc1)C(=O)O
# Assays:
# [1] = target: CDK2/cyclin A (Homo sapiens, UniProt P20248); experiment: CDK2/cyclin A kinase activity assay; type: biochemical
# [2] = target: cyclin A (Homo sapiens, UniProt P20248); experiment: Competitive cyclin A binding assay
# [3] = read-out: IC50 CDK2/cyclin A kinase activity
# Sequence of cyclin A (P20248 whole entry): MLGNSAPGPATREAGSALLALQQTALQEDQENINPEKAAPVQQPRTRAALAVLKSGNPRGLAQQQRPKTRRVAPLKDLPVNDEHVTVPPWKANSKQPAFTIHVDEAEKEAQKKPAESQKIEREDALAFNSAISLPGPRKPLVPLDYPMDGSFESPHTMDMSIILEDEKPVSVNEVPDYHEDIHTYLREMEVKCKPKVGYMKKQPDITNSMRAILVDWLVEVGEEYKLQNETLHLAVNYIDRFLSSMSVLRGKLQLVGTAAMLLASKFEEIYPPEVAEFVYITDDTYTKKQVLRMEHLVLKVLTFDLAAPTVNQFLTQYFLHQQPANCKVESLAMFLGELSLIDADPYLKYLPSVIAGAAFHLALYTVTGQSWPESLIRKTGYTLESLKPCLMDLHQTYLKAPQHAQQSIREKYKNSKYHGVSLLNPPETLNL
Compound,"IC50 [1, 3] [µM]",IC50 [2] [µM],IC50 [1] [µM]
"CC(C)C[C@H](NC(=O)[C@H](CCCNC(=N)N)NC(=O)[C@@H](N)CCCNC(=N)N)C(=O)N[C@@H](Cc1ccccc1)C(N)=O [SEQ ID NO: 20, H-Arg-Arg-Leu-Phe-NH2] (H-RRLF-NH2)",> 50,8.1,–
"CC(C)C[C@H](NC(=O)[C@H](CCCNC(=N)N)NC(=O)[C@@H](N)CCCNC(=N)N)C(=O)N[C@@H](Cc1ccc(F)cc1)C(N)=O [SEQ ID NO: 29, H-Arg-Arg-Leu-—-(p-F-Phe)-NH2] (H-RRL[Phe(4-F)]-NH2)",50,19,–
"CC(=O)N[C@@H](CCCN=C(N)N)C(=O)N[C@@H](CCCN=C(N)N)C(=O)N[C@@H](CC(C)C)C(=O)N[C@@H](CC(N)=O)C(=O)N[C@@H](Cc1ccccc1)C(N)=O [SEQ ID NO: 30, Ac-Arg-Arg-Leu-Asn-Phe-NH2]",–,–,> 50
